Counter-ions that a name gives are not always drawn.
Columns and labels:
[1] = tested on: homozygous progeny of the three mutant sources; assay type: in vivo, sunflower; details: Test B application rates, post-emergence
Method: (§1) A greenhouse experiment was conducted to evaluate the spectrum of tolerance of three homozygous resistant mutants to various herbicides inhibiting acetolactate synthase (ALS) as their mode of action. The inbred lines tested were the 5th generation self-pollinated maintainers, M5M7, M5M11 and M5M12, as well as the 4th generation male sterile back-crosses BC4-M5M7, BC4-M5M11 and BC4-M5M12. Treatments of formulated herbicides were applied post-emergence at the 4-leaf stage. Application rates of the test herbicides were chosen to coincide with the rates commonly used in the crops for which they are registered. The application rate of imazethapyr was chosen to match the rate recommended to control parasitic weeds in sunflowers by L. García-Torres et al., Weed Technology 1995, 9, 819-824. Wild type H89 inbred sunflower was not included in this test, because the many of the tested herbicides are known to be efficacious in controlling volunteer sunflower as a weed. Treatments were replicated twice. […] A rating of 0% phytotoxicity means no crop injury.

[2] = tested on: M5M12; assay: Test B greenhouse phytotoxicity, M5M12; assay type: in vivo, sunflower; details: in vivo
Method: as §1

[3] = tested on: BC4-M5M12; assay: Test B greenhouse phytotoxicity, BC4-M5M12; assay type: in vivo, sunflower; details: in vivo
Method: as §1

[4] = tested on: BC4-M5M11; assay: Test B greenhouse phytotoxicity, BC4-M5M11; assay type: in vivo, sunflower; details: in vivo
Method: as §1

[5] = tested on: M5M11; assay: Test B greenhouse phytotoxicity, M5M11; assay type: in vivo, sunflower; details: in vivo
Method: as §1

[6] = tested on: BC4-M5M12 × PHA155 hybrid; assay: Test E injury to sunflower hybrid; assay type: in vivo; details: in vivo
Method: (§2) Based on the results from Test D, a modified protocol was developed to include three timings of post-emergence treatment. The hybrid BC4-M5M12 (female parent)×PHA155 restorer line (male parent) described in Test C was used in this test. Various herbicide programs were tested using three replications. […] Seed coatings of these formulated herbicides were applied to 6 kg of seeds in such amount that considering the distribution of the coated seeds in each pot, the herbicide active ingredient (a.i.) application rates per hectare were as indicated.
(§3) The treatments were applied similar to the methods described for Test D. Pre-emergence applications were broadcast only, not soil incorporated. For pre-emergence application, the pots were sprayed using the high rates of the herbicides two days after sowing the sunflower seeds. Post-emergence treatments were applied at the 4-6 leaf stage of sunflower (corresponding to early stage of Orobanche attachment; identified as “T1”), the 6-8 leaf stage of sunflower (corresponding to the mid stage of Orobanche attachment; nodules <5 mm diameter; identified as “T2”) and 8-12 leaf stage of sunflower (corresponding to late stage of Orobanche attachment; identified as “T3”). The mid-stage applications included the high as well as low application rates of each herbicide.
(§4) For comparison were also included in this test other acetolactate synthase-inhibiting herbicides reported in the literature as giving good weed control of Orobanche (L. García-Torres et al., Weed Research 1994, 34, 395-402; L. García-Torres et al., Weed Technology 1995, 9, 819-824; J. Hershenhorn et al., Weed Technology 1998, 12, 108-114).

[7] = tested on: M5M7; assay: Test B greenhouse phytotoxicity, M5M7; assay type: in vivo, sunflower; details: in vivo
Method: as §1

[8] = tested on: Orobanche cumana; assay: Test E control of Orobanche cumana in resistant sunflower hybrid; assay type: in vivo; details: for relative efficacy in controlling Orobanche: Test E rates, metsulfuron-methyl compared with tribenuron-methyl
Method: The effect of the various treatments was evaluated 35 days after sowing. The sunflower roots were cleaned by washing in water, and the presence of Orobanche nodules was determined visually and by weighing root wet mass in comparison to check plants free of Orobanche infestation. […] The nodules caused by Orobanche increased root weight, and a correlation (r=0.7) was found between visual scores and weight measurements. Thus the weighing technique could be used to corroborate visual efficacy scorings. Orobanche emergence was also scored but found to be less useful to evaluate treatment efficiency at the evaluation timing of this test.
as §2, §3, §4

[9] = tested on: BC4-M5M7; assay: Test B greenhouse phytotoxicity, BC4-M5M7; assay type: in vivo, sunflower; details: in vivo
Method: as §1

[10] = tested on: O. cernua; details: preemergence application of a low dose (2 to 6 g/ha), with sunflower tolerance; cited from earlier work
[11] = tested on: Mercurialis annua; assay: Test H weed control, field plots; assay type: in vivo; design: concentration or dose not given beside the values; details: 36 days after treatment; g a.i./ha: tribenuron-methyl 22.5, metsulfuron-methyl 6, ethametsulfuron-methyl 16, imazapyr isopropylamine salt 15, aclonifen 1200
Text: (§5) Field plots (2 m×5 m) were tilled to remove weed cover and then seeded in rows with the following weeds: Capsella bursa pastoris, Atriplex patula, Chenopodium album, Stellaria media, Mecurialis annua, Polygonum persicaria, Amaranthus retroflexus, Polygonum convolvulus, Polygonum aviculare, Viola arvensis, Matricaria inodora, Anagallis arvensis, Sinapis arvensis, Setaria viridis, Solanum nigrum and Echinochloa crusgalli. After 21 days from sowing, at which time the weeds had reached the 2- to 6-leaf stage, herbicide treatments were applied to the plots according to a complete randomized block design, with each herbicide treatment triply replicated. The herbicides were sprayed using standard flat fan nozzles moved perpendicular to the sown lines using water spray volumes of about 296 L/ha.
(§6) Assessments of weed control were made by visual inspection 36 days after herbicide treatment. A visual rating system was used based on a percentage scale from 0 to 100% compared to an adjacent untreated control plot. On this scale 0 represents no visual differences relative to an untreated control and 100 represents complete control of the given weed species.

[12] = tested on: Echinochloa crus-galli; assay: Test H weed control, field plots; assay type: in vivo; design: concentration or dose not given beside the values; details: 36 days after treatment; g a.i./ha: tribenuron-methyl 22.5, metsulfuron-methyl 6, ethametsulfuron-methyl 16, imazapyr isopropylamine salt 15, aclonifen 1200
Text: as §5, §6

[13] = tested on: Polygonum aviculare; assay: Test H weed control, field plots; assay type: in vivo; design: concentration or dose not given beside the values; details: 36 days after treatment; g a.i./ha: tribenuron-methyl 22.5, metsulfuron-methyl 6, ethametsulfuron-methyl 16, imazapyr isopropylamine salt 15, aclonifen 1200
Text: as §5, §6

[14] = tested on: Sinapis arvensis; assay: Test H weed control, field plots; assay type: in vivo; design: concentration or dose not given beside the values; details: 36 days after treatment; g a.i./ha: tribenuron-methyl 22.5, metsulfuron-methyl 6, ethametsulfuron-methyl 16, imazapyr isopropylamine salt 15, aclonifen 1200
Text: as §5, §6

[15] = tested on: Setaria viridis; assay: Test H weed control, field plots; assay type: in vivo; design: concentration or dose not given beside the values; details: 36 days after treatment; g a.i./ha: tribenuron-methyl 22.5, metsulfuron-methyl 6, ethametsulfuron-methyl 16, imazapyr isopropylamine salt 15, aclonifen 1200
Text: as §5, §6

[16] = tested on: Amaranthus retroflexus; assay: Test H weed control, field plots; assay type: in vivo; design: concentration or dose not given beside the values; details: 36 days after treatment; g a.i./ha: tribenuron-methyl 22.5, metsulfuron-methyl 6, ethametsulfuron-methyl 16, imazapyr isopropylamine salt 15, aclonifen 1200
Text: as §5, §6

[17] = tested on: Viola arvensis; assay: Test H weed control, field plots; assay type: in vivo; design: concentration or dose not given beside the values; details: 36 days after treatment; g a.i./ha: tribenuron-methyl 22.5, metsulfuron-methyl 6, ethametsulfuron-methyl 16, imazapyr isopropylamine salt 15, aclonifen 1200
Text: as §5, §6

[18] = tested on: Polygonum convolvulus; assay: Test H weed control, field plots; assay type: in vivo; design: concentration or dose not given beside the values; details: 36 days after treatment; g a.i./ha: tribenuron-methyl 22.5, metsulfuron-methyl 6, ethametsulfuron-methyl 16, imazapyr isopropylamine salt 15, aclonifen 1200
Text: as §5, §6

[19] = tested on: Polygonum persicaria; assay: Test H weed control, field plots; assay type: in vivo; design: concentration or dose not given beside the values; details: 36 days after treatment; g a.i./ha: tribenuron-methyl 22.5, metsulfuron-methyl 6, ethametsulfuron-methyl 16, imazapyr isopropylamine salt 15, aclonifen 1200
Text: as §5, §6

[20] = tested on: Matricaria inodora; assay: Test H weed control, field plots; assay type: in vivo; design: concentration or dose not given beside the values; details: 36 days after treatment; g a.i./ha: tribenuron-methyl 22.5, metsulfuron-methyl 6, ethametsulfuron-methyl 16, imazapyr isopropylamine salt 15, aclonifen 1200
Text: as §5, §6

[21] = tested on: Atriplex patula; assay: Test H weed control, field plots; assay type: in vivo; design: concentration or dose not given beside the values; details: 36 days after treatment; g a.i./ha: tribenuron-methyl 22.5, metsulfuron-methyl 6, ethametsulfuron-methyl 16, imazapyr isopropylamine salt 15, aclonifen 1200
Text: as §5, §6

[22] = tested on: Capsella bursa pastoris; assay: Test H weed control, field plots; assay type: in vivo; design: concentration or dose not given beside the values; details: 36 days after treatment; g a.i./ha: tribenuron-methyl 22.5, metsulfuron-methyl 6, ethametsulfuron-methyl 16, imazapyr isopropylamine salt 15, aclonifen 1200
Text: as §5, §6

[23] = tested on: Anagallis arvensis; assay: Test H weed control, field plots; assay type: in vivo; design: concentration or dose not given beside the values; details: 36 days after treatment; g a.i./ha: tribenuron-methyl 22.5, metsulfuron-methyl 6, ethametsulfuron-methyl 16, imazapyr isopropylamine salt 15, aclonifen 1200
Text: as §5, §6

[24] = tested on: Solanum nigrum; assay: Test H weed control, field plots; assay type: in vivo; design: concentration or dose not given beside the values; details: 36 days after treatment; g a.i./ha: tribenuron-methyl 22.5, metsulfuron-methyl 6, ethametsulfuron-methyl 16, imazapyr isopropylamine salt 15, aclonifen 1200
Text: as §5, §6

[25] = tested on: Orobanche cumana (Race F); assay: Test F sequential application to control Orobanche cumana; assay type: in vivo; details: post-emergence T3 15 g a.i./ha
Method: A greenhouse experiment was performed to identify the best sequential program compared to straight application of tribenuron-methyl or metsulfuron-methyl for control of Orobanche cumana (Race F). The dose range for optimum efficacy was also studied. Both herbicides were used as formulated compositions. […] BC4-M5M7×PHA155 is referred to below as “Hybrid 7”, and BC4-M5M12×PHA155 is referred to below as “Hybrid 12”.
Seed coating treatment was performed as described for Test D. Post-emergence treatments were applied at the 2-4 leaf stage of sunflower (corresponding to early stage of Orobanche attachment; identified as “T1”), the 6 leaf stage of sunflower (corresponding to the mid stage of Orobanche attachment; nodules <5 mm diameter; identified as “T2”) and 8 leaf stage of sunflower (corresponding to late stage of Orobanche attachment; identified as “T3”).
The efficacy was evaluated visually as described for Test D except that the efficacy was assessed ten days later than for Tests D and E. The later evaluation allowed observing any reduction of efficacy due to late Orobanche emergence or re-growth of treated nodules. Efficacy in controlling Orobanche attached to roots was evidenced by nodules comprising black necrotic tissues with no apparent active meristematic area. These nodules could be easily crushed between fingers.

[26] = tested on: Chenopodium album; assay: Test H weed control, field plots; assay type: in vivo; details: 36 days after treatment; g a.i./ha: tribenuron-methyl 22.5, metsulfuron-methyl 6, ethametsulfuron-methyl 16, imazapyr isopropylamine salt 15, aclonifen 1200
Text: as §5, §6

[27] = tested on: Stellaria media; assay: Test H weed control, field plots; assay type: in vivo; details: 36 days after treatment; g a.i./ha: tribenuron-methyl 22.5, metsulfuron-methyl 6, ethametsulfuron-methyl 16, imazapyr isopropylamine salt 15, aclonifen 1200
Text: as §5, §6

SMILES: COc1nc(C)nc(NC(=O)NS(=O)(=O)c2ccccc2Cl)n1 [Chlorsulfuron, chlorsulfuron]
- tolerance of the mutants [1]: somewhat sensitive
- Maximum Phytotoxicity [2]: 45%
- Maximum Phytotoxicity [3]: 45%
- Maximum Phytotoxicity [4]: 50%
- Maximum Phytotoxicity [5]: 50%
- Injury [6]: 0%
- Maximum Phytotoxicity [7]: 47.5%
- relative efficacy in controlling Orobanche [8]: less efficacious in controlling Orobanche
- Control ([8]; pre-emergence 2 g a.i./ha): 13%
- Control ([8]; pre-emergence 10 g a.i./ha): 58%
- Maximum Phytotoxicity [9]: 45%
- control of O. cernua [10]: 75-85%

SMILES: CC(C)C1(C)N=C(c2ncccc2C(=O)O)NC1=O (stereo not shown) [Imazapyr, isopropylamine salt, Imazapyr]
- weed control, visual rating: Mercurialis annua [11]: 47%
- weed control, visual rating: Echinochloa crus-galli [12]: 27%
- weed control, visual rating: Polygonum aviculare [13]: 0%
- weed control, visual rating: Sinapis arvensis [14]: 100%
- weed control, visual rating: Setaria viridis [15]: 93%
- weed control, visual rating: Amaranthus retroflexus [16]: 84%
- weed control, visual rating: Viola arvensis [17]: 0%
- weed control, visual rating: Polygonum convolvulus [18]: 94%
- weed control, visual rating: Polygonum persicaria [19]: 100%
- weed control, visual rating: Matricaria inodora [20]: 43%
- weed control, visual rating: Atriplex patula [21]: 85%
- weed control, visual rating: Capsella bursa pastoris [22]: 100%
- weed control, visual rating: Anagallis arvensis [23]: 100%
- weed control, visual rating: Solanum nigrum [24]: 100%
- Injury [6]: 0%
- sunflower phytotoxicity [6]: transitory phytotoxicity symptoms
- relative efficacy in controlling Orobanche [8]: less efficacious in controlling Orobanche
- Control ([8]; post-emergence 15 g a.i./ha at T3): 72%
- % Control in Hybrid 7 [25]: 97%
- % Control in Hybrid 12 [25]: 97%
- weed control, visual rating: Chenopodium album [26]: 87%
- weed control, visual rating: Stellaria media [27]: 100%

From patent publication US6822146B2, “Sulfonylurea-tolerant sunflower line M7” (priority 2000, dated 2004)
